Reference: US20090215752A1, “Compounds, preparation and therapeutic use thereof” (priority 2005, published 2009)
Like-named read-outs stand apart in the source and are kept apart here.

Columns and labels:
[1] = tested on: PDE4; test: Selectivity: inhibition of PDE4 (radioenzymatic assay); assay type: biochemical, bovine; conditions: Table 2; for PDE4 percentage inhibition at 10 μM: 10 μM compound
Description: (§1) 2.1.1. Isolation of Phosphodiesterases from Smooth Muscle A 3 g segment of bovine aortic media cut into pieces with scissors was homogenized with an ultra-turrax then a potter glass/glass homogenizer in 7 volumes by weight of buffer A containing a protease inhibitor cocktail (20 mM Tris-HCl, 0.25 M saccharose, 2 mM magnesium acetate, 1 mM dithiothreitol, 5 mM EGTA, 2000 U/ml aprotinin, 10 mg/l leupeptin and 10 mg/l soya trypsic inhibitor). The homogenizate was centrifuged at 105,000 g for 1 hour. The supernatant was loaded on a DEAE-Sephacel column (15×1.6 cm) pre-equilibrated with buffer B (buffer A without the saccharose, EGTA and protease inhibitors). The column was washed until there was no detectable absorption at 280 nm, then eluted with a linear gradient of NaCl (0-0.5 M) in buffer B. 3-ml fractions were collected and enzyme activity was determined under the conditions described hereinbelow to localize the different enzymes PDE1, PDE3, PDE4 and PDE5 which were aliquoted and frozen at −80° C. (Lugnier et al., Biochem. Phamacol., 1986, 35: 1746-1751). PDE2 was isolated from human platelets, provided by Etablissement Français du Sang-Alsace, according to Kameni Tcheudji J F et al., (J. Mol. Biol. 2001; 310: 181-791), and stored until use at −80° C. in small aliquots.
(§2) Cyclic nucleotide phosphodiesterase activity was determined by a radioenzymatic method using tritium-labelled cyclic GMP or AMP (1 μM) as substrate (Lugnier et al., 1986). ^3H-labelled adenosine or guanosine monophosphate formed by hydrolysis of the radiolabelled cyclic nucleotide was then converted to ^3H-labelled adenosine or guanosine in a second reaction with […] in excess. The nucleoside formed was separated from the nucleotides by anion exchange chromatography. Nucleoside radioactivity was determined by liquid scintillation counting. Enzymatic incubations were carried out under conditions allowing no more than 15% hydrolysis of the substrate; each point was performed in duplicate.
(§3) The activity of the compounds was evaluated on other phosphodiesterase isoforms, particularly basal state or calmodulin-activated PDE1 from vascular smooth muscle, PDE3, PDE4 and PDE5 from vascular smooth muscle. The results obtained are presented in Tables 1 and 2 hereinbelow and are expressed as the percentage inhibition of enzymatic activity produced by […] of the test compound.

[2] = molecular target: T1, 5-HT transporter (Homo sapiens, UniProt P31645); test: Serotonergic transporter binding ([3H]imipramine); conditions: [3H]imipramine 2 nM, HEK-293 recombinant, read-out: percentage inhibition at 10 μM of control specific binding to the serotonergic transporter
T1 construct: expressed in transfected cells; host or cells: HEK-293
T1 sequence (P31645 whole entry): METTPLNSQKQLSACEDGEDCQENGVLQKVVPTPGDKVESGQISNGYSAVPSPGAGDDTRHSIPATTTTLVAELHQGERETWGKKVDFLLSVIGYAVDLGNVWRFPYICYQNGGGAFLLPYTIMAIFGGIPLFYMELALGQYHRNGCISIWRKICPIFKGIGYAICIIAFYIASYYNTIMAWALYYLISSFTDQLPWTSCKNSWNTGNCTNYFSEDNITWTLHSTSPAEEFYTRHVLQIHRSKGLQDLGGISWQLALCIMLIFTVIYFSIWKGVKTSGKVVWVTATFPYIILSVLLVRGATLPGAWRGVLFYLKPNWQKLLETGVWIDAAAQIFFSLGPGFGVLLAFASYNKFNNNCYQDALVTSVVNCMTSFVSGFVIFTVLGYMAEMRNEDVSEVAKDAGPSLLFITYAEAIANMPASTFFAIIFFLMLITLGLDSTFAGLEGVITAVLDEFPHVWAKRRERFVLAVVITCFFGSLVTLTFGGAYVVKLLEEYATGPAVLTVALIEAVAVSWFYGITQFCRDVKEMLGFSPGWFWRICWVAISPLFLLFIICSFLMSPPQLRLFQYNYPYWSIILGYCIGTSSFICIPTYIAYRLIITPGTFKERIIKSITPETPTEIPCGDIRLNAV
Description: The serotonergic 5-HT transporter was isolated from human recombinant HEK-293 cells according to the method described by Tatsumi et al. (1997), Pharmacological profile of antidepressants and related compounds at human monoamine transporters, Eur. J. Pharmacol., 340: 249-258.
Serotonergic transporter binding was determined by a radioligand method using tritium-labelled imipramine (2 nM) as substrate (Tatsumi et al., 1999). Ligand radioactivity was determined by liquid scintillation counting. Ligand incubations were carried out for thirty minutes at 22° C. The experiment was conducted in duplicate.
The specific ligand binding to the serotonergic transporter was defined as the difference between the total binding and the non specific binding determined in presence of an excess of unlabelled ligand. The results obtained are presented in Table 3 hereinbelow and are expressed as percent of control specific binding and as a percent inhibition of control specific binding obtained in presence of 10 μM of substance.

[3] = molecular target: T2, PDE2 (Homo sapiens, UniProt O00408); test: Inhibition of PDE2 (radioenzymatic phosphodiesterase assay); assay type: biochemical
T2 construct: PDE2 was isolated from human platelets, provided by Etablissement Français du Sang-Alsace; tissue Etablissement Français du Sang-Alsace; host or cells: human platelets
T2 sequence (O00408 whole entry): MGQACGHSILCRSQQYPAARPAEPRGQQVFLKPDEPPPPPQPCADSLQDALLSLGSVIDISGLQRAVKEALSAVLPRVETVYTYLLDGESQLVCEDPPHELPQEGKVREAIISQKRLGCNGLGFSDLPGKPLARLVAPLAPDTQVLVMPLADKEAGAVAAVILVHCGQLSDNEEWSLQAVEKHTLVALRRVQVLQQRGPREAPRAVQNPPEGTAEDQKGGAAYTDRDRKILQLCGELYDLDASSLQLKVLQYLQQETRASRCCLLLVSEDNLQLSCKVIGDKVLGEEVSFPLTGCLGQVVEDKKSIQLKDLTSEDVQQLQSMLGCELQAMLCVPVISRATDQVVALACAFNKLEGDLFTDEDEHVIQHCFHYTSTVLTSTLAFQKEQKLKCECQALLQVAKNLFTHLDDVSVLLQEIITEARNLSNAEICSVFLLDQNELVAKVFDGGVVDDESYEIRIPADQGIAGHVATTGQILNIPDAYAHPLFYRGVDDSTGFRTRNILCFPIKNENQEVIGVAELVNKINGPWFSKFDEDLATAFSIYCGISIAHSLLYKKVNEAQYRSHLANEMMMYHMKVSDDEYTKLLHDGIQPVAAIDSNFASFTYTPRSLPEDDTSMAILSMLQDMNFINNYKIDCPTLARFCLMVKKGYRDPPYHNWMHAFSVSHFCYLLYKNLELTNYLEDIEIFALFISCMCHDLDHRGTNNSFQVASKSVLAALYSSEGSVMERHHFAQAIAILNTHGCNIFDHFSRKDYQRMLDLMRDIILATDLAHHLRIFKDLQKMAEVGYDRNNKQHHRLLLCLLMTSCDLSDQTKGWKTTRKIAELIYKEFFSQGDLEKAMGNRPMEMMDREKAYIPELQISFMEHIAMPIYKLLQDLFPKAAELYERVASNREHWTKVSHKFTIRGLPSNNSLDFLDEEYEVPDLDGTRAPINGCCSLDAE
Description: as §1, §2
The concentration of substance which inhibits enzymatic activity by 50% (IC50) at 1 μM cyclic AMP was calculated by nonlinear regression from the experimental values of hydrolysis rate (Prism, GraphPad).

[4] = tested on: σ receptors; test: Isolated organ bioassay, field-stimulated vas deferens: test for antagonist activity; design: species or system guinea pig; conditions: for Response to (+)SKF-10,047 (1.0 10^−4 M) in the presence of the compound: mean, n=2
Description: Segments of guinea pig vas deferens were suspended in 20-ml organ baths containing an oxygenated (95% O2 and 5% CO2) and pre-warmed (37° C.) physiological salt solution of the following composition (in mM): NaCl 118.0, KCl 4.7, MgSO4 1.2, CaCl2 2.5, KH2PO4 1.2, NaHCO3 25.0 and glucose 11.0 (pH 7.4). Yohimbine (1 μM), (−) sulpiride (1 μM), atropine (1 μM) and naloxone (1 μM) were also present throughout the experiments to block the α2-adrenergic, dopamine D2, muscarinic and opioid receptors, respectively. The tissues were connected to force transducers for isometric tension recordings. They were stretched to a resting tension of 0.5 g, allowed to equilibrate for at least 30 min during which time they were washed repeatedly and the tension readjusted. Thereafter, they were stimulated electrically using a constant current stimulator.
The tissues were exposed to a submaximal concentration of the reference agonist (+) SKF-10047 (100 μM) to obtain a control response. After stabilization of the (+) SKF-10047-induced response, increasing concentrations of substance or the reference antagonist rimcazole were added cumulatively. Each concentration was left in contact with the tissues until a stable response was obtained or for a maximum of 15 min. If it occurred, an inhibition of the (+) SKF-10047-induced increase in twitch contraction amplitude by substance indicated an antagonist activity at the σ receptors.
The parameter measured was the maximum change in the twitch contraction amplitude induced by each compound concentration. The results are expressed as a percent variation of the control twitch contraction amplitude (mean values). The effects of substance tested at 1.0 10^−6 M, 3.0 10^−6 M and 1.0 10^−5 M for agonist and antagonist activities at the σ receptors in the guinea pig vas deferens bioassay are summarized in Tables 6-7 where those of the reference compounds are also reported.

[5] = molecular target: T3, PDE3 (Bos taurus, UniProt A0A3Q1M1E8); test: Selectivity: inhibition of PDE3 (radioenzymatic assay); assay type: biochemical, bovine; conditions: Table 2; 10 μM compound; read-out: PDE3 percentage inhibition at 10 μM
T3 sequence (A0A3Q1M1E8 1-1126): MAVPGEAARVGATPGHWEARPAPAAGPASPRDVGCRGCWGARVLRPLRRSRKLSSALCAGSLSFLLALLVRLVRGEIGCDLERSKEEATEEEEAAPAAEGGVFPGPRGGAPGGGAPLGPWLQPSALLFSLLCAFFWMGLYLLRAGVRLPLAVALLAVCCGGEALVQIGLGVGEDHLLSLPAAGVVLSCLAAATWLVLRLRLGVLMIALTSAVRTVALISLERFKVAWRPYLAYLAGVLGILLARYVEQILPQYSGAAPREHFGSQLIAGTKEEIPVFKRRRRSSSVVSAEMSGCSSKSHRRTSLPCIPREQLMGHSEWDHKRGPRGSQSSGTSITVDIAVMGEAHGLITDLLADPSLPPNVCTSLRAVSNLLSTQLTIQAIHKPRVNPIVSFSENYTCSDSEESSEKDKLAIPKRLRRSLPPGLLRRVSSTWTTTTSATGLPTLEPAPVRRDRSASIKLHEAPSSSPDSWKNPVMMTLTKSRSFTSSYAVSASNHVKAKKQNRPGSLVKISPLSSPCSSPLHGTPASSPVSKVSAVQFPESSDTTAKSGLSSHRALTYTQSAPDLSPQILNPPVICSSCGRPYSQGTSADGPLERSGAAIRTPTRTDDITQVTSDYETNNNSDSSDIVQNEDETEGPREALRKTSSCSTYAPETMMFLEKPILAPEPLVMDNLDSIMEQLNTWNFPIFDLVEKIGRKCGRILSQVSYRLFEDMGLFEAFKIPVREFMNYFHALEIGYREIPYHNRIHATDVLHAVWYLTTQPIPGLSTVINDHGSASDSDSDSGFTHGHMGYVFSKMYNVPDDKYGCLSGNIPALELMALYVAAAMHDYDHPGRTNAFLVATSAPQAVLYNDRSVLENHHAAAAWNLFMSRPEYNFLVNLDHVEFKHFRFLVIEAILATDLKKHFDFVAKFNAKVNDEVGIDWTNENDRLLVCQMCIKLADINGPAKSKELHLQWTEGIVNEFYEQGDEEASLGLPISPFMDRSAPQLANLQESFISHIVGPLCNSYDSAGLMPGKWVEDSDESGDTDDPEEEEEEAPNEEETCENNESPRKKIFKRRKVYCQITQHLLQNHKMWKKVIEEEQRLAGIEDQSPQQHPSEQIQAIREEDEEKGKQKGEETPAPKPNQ
Description: as §1, with “PDE2 was isolated from human platelets, provided by Etablissement Français du Sang-Alsace, according to Kameni Tcheudji J F et al., (J. Mol. Biol. 2001; 310: 181-791), and stored until use at −80° C. in small aliquots.” left out
as §2, with “The nucleoside formed was separated from the nucleotides by anion exchange chromatography.” left out, “Enzymatic incubations were carried out under conditions allowing no more than 15% hydrolysis of the substrate; each point was performed in duplicate.” left out
as §3

[6] = tested on: PDE1; test: Selectivity: inhibition of PDE1 (radioenzymatic assay); assay type: biochemical, bovine; conditions: Table 2; 10 μM compound
Description: as §1, with “PDE2 was isolated from human platelets, provided by Etablissement Français du Sang-Alsace, according to Kameni Tcheudji J F et al., (J. Mol. Biol. 2001; 310: 181-791), and stored until use at −80° C. in small aliquots.” left out
as §2, with “The nucleoside formed was separated from the nucleotides by anion exchange chromatography.” left out, “Enzymatic incubations were carried out under conditions allowing no more than 15% hydrolysis of the substrate; each point was performed in duplicate.” left out
as §3

[7] = molecular target: T4, PDE5 (Bos taurus, UniProt Q28156); test: Selectivity: inhibition of PDE5 (radioenzymatic assay); assay type: biochemical, bovine; conditions: Table 2; 10 μM compound; read-out: PDE5 percentage inhibition at 10 μM
T4 construct: PDE3, PDE4 and PDE5 from vascular smooth muscle; from tissue; host or cells: bovine aortic media (vascular smooth muscle), DEAE-Sephacel fraction
Description: as §1, with “PDE2 was isolated from human platelets, provided by Etablissement Français du Sang-Alsace, according to Kameni Tcheudji J F et al., (J. Mol. Biol. 2001; 310: 181-791), and stored until use at −80° C. in small aliquots.” left out
as §2, with “The nucleoside formed was separated from the nucleotides by anion exchange chromatography.” left out, “Enzymatic incubations were carried out under conditions allowing no more than 15% hydrolysis of the substrate; each point was performed in duplicate.” left out
as §3

[8] = Table 1, 10 μM compound, 1 μM cyclic AMP, read-out: PDE2 percentage inhibition at 10 μM
[9] = read-out: PDE2 percentage inhibition at 10 μM, Table 1, 10 μM compound, 1 μM cyclic AMP

Compound	PDE4 percentage inhibition at 10 μM [1]	inhibition at 10 µM [2]	inhibition at 10 µM [3, 8]	IC50 [3]	further results
COc1cc2c(c(OC)c1-c1ccc(Cl)cc1)C(c1cccc(C(N)=O)c1)=NCC(=O)N2C [Compound 18]	66%	0%	98%	–	IC50 ([1]; value in square brackets): 6500 nM; IC50 ([3]; Table 1, value in square brackets, 1 μM cyclic AMP, read-out: PDE2 IC50): 300 nM
COc1cc2c(c(OC)c1-c1ccccc1)C(c1ccccc1)=NCC(=O)N2C [Compound 9, 6,8-Dimethoxy-1-methyl-5,7-diphenyl-1,3-dihydro-benzo[e][1,4]diazepin-2-one]	–	1%	71%	–	–
C[C@@H]1CN(CCCn2c3ccccc3c3ccccc32)C[C@H](C)N1 [rimcazole]	–	–	–	–	Response to (+)SKF-10,047 (1.0 10^−4 M) in the presence of the compound ([4]; compound 1.0 10^−6 M): +111%; Response to (+)SKF-10,047 (1.0 10^−4 M) in the presence of the compound ([4]; compound 3.0 10^−6 M): +52%; Effect on the (+) SKF 10,047-induced enhancement of twitch contraction amplitude (in words) ([4]; field-stimulated guinea pig vas deferens): inhibited; Response to (+)SKF-10,047 (1.0 10^−4 M) in the presence of the compound ([4]; third (highest) concentration, printed 1.0 10^−6 M): −12%
COc1cc2c(c(OC)c1-c1ccccc1)C(c1cccc(C#N)c1)=NCC(=O)N2 [Compound 1, 3-(6,8-Dimethoxy-2-oxo-7-phenyl-2,3-dihydro-1H-benzo[e][1,4]diazepin-5-yl)-benzonitrile]	43.3%	5%	–	3000 nM	inhibition at 10 µM [3, 9]: 9%; inhibition at 10 µM ([3]; read-out: PDE2 percentage inhibition at 10 μM, Table 2, 10 μM compound): 9%
COc1cc2c(c(OC)c1-c1ccc(Cl)cc1)C(c1cccc(C#N)c1)=NCC(=O)N2C [Compound 7, 3-[7-(4-Chloro-phenyl)-6,8-dimethoxy-1-methyl-2-oxo-2,3-dihydro-1H-benzo[e][1,4]diazepin-5-yl]-benzonitrile]	41%	16%	61%	4600 nM	–
COc1cc2c(c(OC)c1-c1cccnc1)C(c1cccc(C(N)=O)c1)=NCC(=O)N2 [Compound 20, 3-(6,8-Dimethoxy-2-oxo-7-pyridin-3-yl-2,3-dihydro-1H-benzo[e][1,4]diazepin-5-yl)-benzamide]	–	16%	–	–	PDE2 percentage inhibition at 10 μM ([3]; Table 1, 10 μM compound, 1 μM cyclic AMP): 68%
COc1cc2c(c(OC)c1-c1ccc(Cl)cc1)C(c1cccc(C#N)c1)=NCC(=O)N2 [Compound 2, 3-[7-(4-Chloro-phenyl)-6,8-dimethoxy-2-oxo-2,3-dihydro-1H-benzo[e][1,4]diazepin-5-yl]-benzonitrile]	58%	12%	93%	730 nM	–
COc1cc2c(c(OC)c1-c1ccccc1)C(c1cccc(C#N)c1)=NCC(=O)N2C [Compound 6, 3-(6,8-Dimethoxy-1-methyl-2-oxo-7-phenyl-2,3-dihydro-1H-benzo[e][1,4]diazepin-5-yl)-benzonitrile]	37%	–	80%	1800 nM	inhibition at 10 µM [5]: 40%
COCCCc1cccc(C2=NCC(=O)N(C)c3cc(OC)c(-c4ccccc4)c(OC)c32)c1 [Compound 29, 6,8-Dimethoxy-5-[3-(3-methoxy-propyl)-phenyl]-1-methyl-7-phenyl-1,3-dihydro-benzo[e][1,4]diazepin-2-one]	49%	–	91%	800 nM	inhibition at 10 µM [5]: 40%; PDE1 percentage inhibition at 10 μM [6]: 31%; inhibition at 10 µM [7]: 19%
COc1cc2c(c(OC)c1-c1cccnc1)C(c1cccc(C#N)c1)=NCC(=O)N2C [Compound 8, 3-(6,8-Dimethoxy-1-methyl-2-oxo-7-pyridin-3-yl-2,3-dihydro-1H-benzo[e][1,4]diazepin-5-yl)-benzonitrile]	–	8%	–	–	inhibition at 10 µM [3, 9]: 56%
